The text below walks through data of patent US9833497B2, “Human originated EGF domain proteins and use of the same” (CHENGDU SOURCEBIO LIMITED-LIABILITY COMPANY, priority 2013, dated 2017).

Common to all, as to assay type: cell-based
The subject of one assay is E. coli DH5α. As to the kind of experiment: Antibacterial activity: MIC and growth curve against E. coli DH5α in 96-well plate. As to conditions: minimal inhibitory concentration against E. coli DH5α; 96-well plate, 5×10^5 CFU/mL, 37° C., judged after 8 h. In outline:
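Log-phase bacteria (OD600 ~0.5) resuspended in LB at 5×10^5 CFU/mL, exposed to recombinant protein at 50, 25, 12.5 μg/mL final in triplicate, 37 °C shaking at 175 rpm. OD600 read every 30 min; MIC is lowest concentration showing no growth.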

For another assay, the system named is E. coli BL21. The experiment in a line: MIC against Gram-negative bacteria: E. coli BL21. As to conditions: 5×10^5 CFU/mL; for MIC against E. coli BL21: 96-well plate, 37° C., 10 h; for MIC E. coli BL21: 10 h cultivation at 37° C., two-fold serial dilution. In outline:
(§1)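 Bacteria grown in LB at 37° C with shaking to McFarland 0.5, pelleted and resuspended in fresh LB, then seeded at 5×10^5 CFU/mL per well. Purified recombinant human EGF domain proteins were two-fold serially diluted in triplicate and plates shaken at 37° C, 175 rpm. MIC is the lowest protein concentration with no bacterial growth.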

In the next assay the test system is Pseudomonas aeruginosa. The experiment in a line: MIC against Gram-negative bacteria: Pseudomonas aeruginosa. As to conditions: 5×10^5 CFU/mL; for MIC against P. aeruginosa: 96-well plate, 37° C., 10 h; for MIC P. aeruginosa: 10 h cultivation at 37° C., two-fold serial dilution. In outline:
as §1

A further assay relates to Klebsiella pneumonia. The experiment in a line: MIC against Gram-negative bacteria: Klebsiella pneumonia. As to conditions: 5×10^5 CFU/mL; for MIC against K. pneumonia: 96-well plate, 37° C., 10 h; for MIC K. pneumonia: 10 h cultivation at 37° C., two-fold serial dilution. In outline:
as §1

For a further assay, the system named is Enterobacter cloacae. As to the kind of experiment: MIC against Gram-negative bacteria: Enterobacter cloacae. As to conditions: 5×10^5 CFU/mL; for MIC against E. cloacae: 96-well plate, 37° C., 10 h; for MIC E. cloacae: 10 h cultivation at 37° C., two-fold serial dilution. In outline: as §1
A further assay relates to Aeromonas hydrophila. The experiment in a line: MIC against Gram-negative bacteria: Aeromonas hydrophila. As to conditions: 5×10^5 CFU/mL; for MIC against A. hydrophila: 96-well plate, 37° C., 10 h; for MIC A. hydrophila: 10 h cultivation at 37° C., two-fold serial dilution. In outline:
as §1

For another assay, the system named is Citrobacter diversus. The experiment in a line: MIC against Gram-negative bacteria: Citrobacter diversus. As to conditions: 5×10^5 CFU/mL; for MIC against C. diversus: 96-well plate, 37° C., 10 h; for MIC C. diversus: 10 h cultivation at 37° C., two-fold serial dilution. A digest of the protocol:
as §1

The subject of another assay is Moraxella catarrhalis. The experiment in a line: MIC against Gram-negative bacteria: Moraxella catarrhalis. As to conditions: 5×10^5 CFU/mL; for MIC against M. catarrhalis: 96-well plate, 37° C., 10 h; for MIC M. catarrhalis: 10 h cultivation at 37° C., two-fold serial dilution. In outline: as §1
Another assay relates to Proteus mirabilis. The experiment in a line: MIC against Gram-negative bacteria: Proteus mirabilis. As to conditions: 5×10^5 CFU/mL; for MIC against P. mirabilis: 96-well plate, 37° C., 10 h; for MIC P. mirabilis: 10 h cultivation at 37° C., two-fold serial dilution. A digest of the protocol:
as §1

A further assay has as its system Proteus vulgaris. The experiment in a line: MIC against Gram-negative bacteria: Proteus vulgaris. As to conditions: 5×10^5 CFU/mL; for MIC against P. vulgaris: 96-well plate, 37° C., 10 h; for MIC P. vulgaris: 10 h cultivation at 37° C., two-fold serial dilution. A digest of the protocol: as §1
The next assay has as its system Serratia marcescens. As to the kind of experiment: MIC against Gram-negative bacteria: Serratia marcescens. As to conditions: 5×10^5 CFU/mL; for MIC against S. marcescens: 96-well plate, 37° C., 10 h; for MIC S. marcescens: 10 h cultivation at 37° C., two-fold serial dilution. In outline:
as §1

With “PRT1332 (FGPSCSSVCNCVHGVCNSGLDGDGTCECYSAYTGPKCD; listed as Homo sapiens)”, in the assay with E. coli DH5α, the minimum inhibitory concentration (MIC) (in general, the lowest concentration found to suppress growth) was determined as 50 mg/L. Besides, the “MIC against E. coli BL21” value against E. coli BL21 (E. coli BL21) was 12.5 mg/L. For the same substance, in the assay with Pseudomonas aeruginosa (Pseudomonas aeruginosa), the “MIC against P. aeruginosa” value is 50 mg/L. Also, the “MIC against K. pneumonia” value against Klebsiella pneumonia (Klebsiella pneumonia) came to 25 mg/L. Further, the “MIC against E. cloacae” value against Enterobacter cloacae (Enterobacter cloacae) amounted to 12.5 mg/L. In the assay on Aeromonas hydrophila (Aeromonas hydrophila), the “MIC against A. hydrophila” value amounted to 50 mg/L. Moreover, in the assay on Citrobacter diversus (Citrobacter diversus), the “MIC against C. diversus” value stood at 25 mg/L. Further, in the assay with Moraxella catarrhalis (Moraxella catarrhalis), the “MIC against M. catarrhalis” value turned out to be 12.5 mg/L. In the assay on Proteus mirabilis (Proteus mirabilis), the “MIC against P. mirabilis” value was determined as 25 mg/L. Further, the “MIC against P. vulgaris” value against Proteus vulgaris (Proteus vulgaris) amounted to 12.5 mg/L. In addition, the “MIC against S. marcescens” value against Serratia marcescens (Serratia marcescens) stood at 25 mg/L.

Regarding “PRT1138 (EINECDSDPCMNGGLCHESTIPGQFVCLCPPLYTGQFCH; listed as Homo sapiens)”, the MIC with E. coli DH5α worked out at 25 mg/L. Besides, the “MIC E. coli BL21” value against E. coli BL21 was found to be 50 mg/L. For the same substance, the “MIC P. aeruginosa” value against Pseudomonas aeruginosa came out at 25 mg/L. For the same substance, the “MIC K. pneumonia” value against Klebsiella pneumonia came to 12.5 mg/L. Moreover, the “MIC E. cloacae” value against Enterobacter cloacae came out at 25 mg/L. Moreover, the “MIC A. hydrophila” value against Aeromonas hydrophila stood at 25 mg/L. Moreover, the “MIC C. diversus” value in the assay on Citrobacter diversus stood at 50 mg/L. For the same substance, the “MIC M. catarrhalis” value in the assay with Moraxella catarrhalis stood at 25 mg/L. The “MIC P. mirabilis” value in the assay on Proteus mirabilis was 12.5 mg/L. The “MIC P. vulgaris” value in the assay on Proteus vulgaris came to 25 mg/L. Further, the “MIC S. marcescens” value in the assay on Serratia marcescens came to 50 mg/L.

As to “PRT1158 (IQTSCESFPLRNNATCKKCEKDYPCSCISGFTEKNCE; listed as Homo sapiens)”, the MIC in the assay on E. coli DH5α was 25 mg/L. The “MIC E. coli BL21” value against E. coli BL21 was determined as 12.5 mg/L. The “MIC P. aeruginosa” value against Pseudomonas aeruginosa is 25 mg/L. For the same substance, the “MIC K. pneumonia” value against Klebsiella pneumonia stood at 50 mg/L. Also, in the assay on Enterobacter cloacae, the “MIC E. cloacae” value turned out to be 12.5 mg/L. Besides, in the assay with Aeromonas hydrophila, the “MIC A. hydrophila” value came out at 50 mg/L. Moreover, in the assay with Citrobacter diversus, the “MIC C. diversus” value came out at 12.5 mg/L. Also, the “MIC M. catarrhalis” value against Moraxella catarrhalis came to 50 mg/L. Besides, the “MIC P. mirabilis” value with Proteus mirabilis is 12.5 mg/L. Also, the “MIC P. vulgaris” value in the assay on Proteus vulgaris was found to be 50 mg/L. Besides, the “MIC S. marcescens” value against Serratia marcescens is 25 mg/L.

Substance “PRT479 (AAMACSHQRCHGHGRCARRDPGQMEAFLHLWPDGSLGDWKSFSCHCYWGWAGPTCQ; listed as Homo sapiens)” gave an MIC against E. coli DH5α of 25 mg/L. For the same substance, the “MIC against E. coli BL21” value with E. coli BL21 came out at 50 mg/L. In addition, in the assay with Pseudomonas aeruginosa, the “MIC against P. aeruginosa” value stood at 25 mg/L. Further, the “MIC against K. pneumonia” value against Klebsiella pneumonia stood at 12.5 mg/L. Moreover, in the assay on Enterobacter cloacae, the “MIC against E. cloacae” value was found to be 25 mg/L. In the assay on Aeromonas hydrophila, the “MIC against A. hydrophila” value stood at 50 mg/L. Also, the “MIC against C. diversus” value against Citrobacter diversus amounted to 25 mg/L. The “MIC against M. catarrhalis” value in the assay with Moraxella catarrhalis was 12.5 mg/L. The “MIC against P. mirabilis” value in the assay with Proteus mirabilis turned out to be 25 mg/L. The “MIC against P. vulgaris” value in the assay with Proteus vulgaris was determined as 50 mg/L. For the same substance, the “MIC against S. marcescens” value against Serratia marcescens came to 25 mg/L.

As to “PRT1234 (LASGCPWMCSGRGICDAGRCVCDRGFGGPYCV; listed as Homo sapiens)”, in the assay on E. coli DH5α, the MIC turned out to be 25 mg/L. For the same substance, the “MIC against E. coli BL21” value against E. coli BL21 (E. coli BL21) was 50 mg/L. Also, the “MIC against P. aeruginosa” value with Pseudomonas aeruginosa (Pseudomonas aeruginosa) is 12.5 mg/L. Further, in the assay with Klebsiella pneumonia (Klebsiella pneumonia), the “MIC against K. pneumonia” value stood at 25 mg/L. Further, in the assay with Enterobacter cloacae (Enterobacter cloacae), the “MIC against E. cloacae” value is 50 mg/L. Besides, the “MIC against A. hydrophila” value in the assay on Aeromonas hydrophila (Aeromonas hydrophila) was 25 mg/L. Further, the “MIC against C. diversus” value against Citrobacter diversus (Citrobacter diversus) was determined as 25 mg/L. Also, in the assay with Moraxella catarrhalis (Moraxella catarrhalis), the “MIC against M. catarrhalis” value turned out to be 25 mg/L. In addition, the “MIC against P. mirabilis” value against Proteus mirabilis (Proteus mirabilis) was 25 mg/L. The “MIC against P. vulgaris” value against Proteus vulgaris (Proteus vulgaris) amounted to 12.5 mg/L. In addition, in the assay with Serratia marcescens (Serratia marcescens), the “MIC against S. marcescens” value was 25 mg/L.

“PRT1257 (CMNKDHGCAHICRETPKGGVACDCRPGFDLAQNQKDC; listed as Homo sapiens)” came in with an MIC in the assay with E. coli DH5α of 12.5 mg/L. In addition, the “MIC against E. coli BL21” value in the assay on E. coli BL21 (E. coli BL21) stood at 50 mg/L. The “MIC against P. aeruginosa” value in the assay on Pseudomonas aeruginosa (Pseudomonas aeruginosa) came out at 25 mg/L. Moreover, the “MIC against K. pneumonia” value against Klebsiella pneumonia (Klebsiella pneumonia) amounted to 12.5 mg/L. Further, the “MIC against E. cloacae” value against Enterobacter cloacae (Enterobacter cloacae) came to 25 mg/L. Moreover, in the assay with Aeromonas hydrophila (Aeromonas hydrophila), the “MIC against A. hydrophila” value worked out at 25 mg/L. Also, in the assay on Citrobacter diversus (Citrobacter diversus), the “MIC against C. diversus” value came to 50 mg/L. Besides, the “MIC against M. catarrhalis” value in the assay on Moraxella catarrhalis (Moraxella catarrhalis) stood at 12.5 mg/L. Besides, the “MIC against P. mirabilis” value in the assay on Proteus mirabilis (Proteus mirabilis) turned out to be 50 mg/L. The “MIC against P. vulgaris” value in the assay on Proteus vulgaris (Proteus vulgaris) turned out to be 12.5 mg/L. Also, the “MIC against S. marcescens” value against Serratia marcescens (Serratia marcescens) was determined as 50 mg/L.
